Test results: US8148391B2 (Cephalon, Inc., priority 2006, dated 2012)
Read-outs that look alike come from different tables or passages of the source. Blank lines part the entries; values can stand above or below the compound they belong to.

How the values were obtained:
[1] = target: T1, baculovirus-expressed ALK (Homo sapiens, UniProt Q9UM73); experiment: ALK Kinase Assay (ELISA-type, time-resolved fluorescence); assay type: biochemical
T1 construct: host or cells: baculovirus expression system
Procedure, shortened: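 Plates coated with phospholipase C-γ substrate (10 μg/mL in TBS); reaction started with 30 ng/ml ALK and run 15 min at 37° C. Phosphorylated substrate detected with Eu-N1-labeled PT66 antibody. IC50 from sigmoidal variable-slope fit of percent inhibition vs log concentration.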

[2] = target: T2, c-Met (cytoplasmic domain) (Homo sapiens, UniProt P08581); experiment: c-Met Kinase Assay (same methods as for ALK, with modifications); assay type: biochemical
T2 construct: 10 ng/mL c-Met (cytoplasmic domain, Invitrogen Corporation #PV3143); purchased Invitrogen Corporation PV3143
Method: Briefly, each 96-well plate was coated with 100 μL/well of 10 μg/mL substrate (phospholipase C-γ) in Tris-buffered saline (TBS). […] The reaction was initiated by adding enzyme (30 ng/ml ALK) and was allowed to proceed at 37° C. for 15 minutes. Detection of the phosphorylated product was performed by adding 100 μl/well of Eu-N1 labeled PT66 antibody (Perkin Elmer # AD0041).
Data analysis was performed using ActivityBase (IDBS, Guilford, UK). IC50 values were calculated by plotting percent inhibition versus log10 of the concentration of compound and fitting to the nonlinear regression sigmoidal dose-response (variable slope) equation in XLFit (IDBS, Guilford, UK).
Reactions were initiated with 10 ng/mL c-Met (cytoplasmic domain, Invitrogen Corporation #PV3143).

[3] = ALK kinase inhibition, 1 μM ATP, read-out: ALK Activity
[4] = c-Met kinase inhibition, 1 μM ATP, read-out: cMet Activity
[5] = 1 μM ATP (Km level), 30 ng/ml ALK, 37° C., 15 minutes, read-out: ALK Activity (ALK kinase inhibition, IC50 class)
[6] = 1 μM ATP (Km level), 10 ng/mL c-Met, read-out: cMet Activity (c-Met kinase inhibition, IC50 class)
[7] = ALK kinase inhibition, 1 μM ATP (Km level), read-out: ALK Activity
[8] = c-Met kinase inhibition, 1 μM ATP (Km level), read-out: cMet Activity
[9] = 1 μM ATP (Km level), read-out: ALK Activity (ALK Kinase Inhibition, IC50)
[10] = 1 μM ATP (Km level), read-out: cMet Activity (c-Met Kinase Inhibition, IC50)

T2 sequence (P08581 956-1390 limits assumed): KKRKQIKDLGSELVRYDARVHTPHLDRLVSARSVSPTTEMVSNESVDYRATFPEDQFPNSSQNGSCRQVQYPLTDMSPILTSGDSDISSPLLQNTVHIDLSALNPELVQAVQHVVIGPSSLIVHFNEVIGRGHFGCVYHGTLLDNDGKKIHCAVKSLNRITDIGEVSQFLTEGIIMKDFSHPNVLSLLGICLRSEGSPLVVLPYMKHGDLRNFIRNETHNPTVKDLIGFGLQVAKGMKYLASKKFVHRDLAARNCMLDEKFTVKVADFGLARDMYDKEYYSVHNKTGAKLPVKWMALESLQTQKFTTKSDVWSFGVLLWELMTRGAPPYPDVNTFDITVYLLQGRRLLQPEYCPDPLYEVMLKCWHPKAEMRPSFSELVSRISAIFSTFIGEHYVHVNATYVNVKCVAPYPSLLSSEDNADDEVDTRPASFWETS
T1 sequence (Q9UM73 19-1620): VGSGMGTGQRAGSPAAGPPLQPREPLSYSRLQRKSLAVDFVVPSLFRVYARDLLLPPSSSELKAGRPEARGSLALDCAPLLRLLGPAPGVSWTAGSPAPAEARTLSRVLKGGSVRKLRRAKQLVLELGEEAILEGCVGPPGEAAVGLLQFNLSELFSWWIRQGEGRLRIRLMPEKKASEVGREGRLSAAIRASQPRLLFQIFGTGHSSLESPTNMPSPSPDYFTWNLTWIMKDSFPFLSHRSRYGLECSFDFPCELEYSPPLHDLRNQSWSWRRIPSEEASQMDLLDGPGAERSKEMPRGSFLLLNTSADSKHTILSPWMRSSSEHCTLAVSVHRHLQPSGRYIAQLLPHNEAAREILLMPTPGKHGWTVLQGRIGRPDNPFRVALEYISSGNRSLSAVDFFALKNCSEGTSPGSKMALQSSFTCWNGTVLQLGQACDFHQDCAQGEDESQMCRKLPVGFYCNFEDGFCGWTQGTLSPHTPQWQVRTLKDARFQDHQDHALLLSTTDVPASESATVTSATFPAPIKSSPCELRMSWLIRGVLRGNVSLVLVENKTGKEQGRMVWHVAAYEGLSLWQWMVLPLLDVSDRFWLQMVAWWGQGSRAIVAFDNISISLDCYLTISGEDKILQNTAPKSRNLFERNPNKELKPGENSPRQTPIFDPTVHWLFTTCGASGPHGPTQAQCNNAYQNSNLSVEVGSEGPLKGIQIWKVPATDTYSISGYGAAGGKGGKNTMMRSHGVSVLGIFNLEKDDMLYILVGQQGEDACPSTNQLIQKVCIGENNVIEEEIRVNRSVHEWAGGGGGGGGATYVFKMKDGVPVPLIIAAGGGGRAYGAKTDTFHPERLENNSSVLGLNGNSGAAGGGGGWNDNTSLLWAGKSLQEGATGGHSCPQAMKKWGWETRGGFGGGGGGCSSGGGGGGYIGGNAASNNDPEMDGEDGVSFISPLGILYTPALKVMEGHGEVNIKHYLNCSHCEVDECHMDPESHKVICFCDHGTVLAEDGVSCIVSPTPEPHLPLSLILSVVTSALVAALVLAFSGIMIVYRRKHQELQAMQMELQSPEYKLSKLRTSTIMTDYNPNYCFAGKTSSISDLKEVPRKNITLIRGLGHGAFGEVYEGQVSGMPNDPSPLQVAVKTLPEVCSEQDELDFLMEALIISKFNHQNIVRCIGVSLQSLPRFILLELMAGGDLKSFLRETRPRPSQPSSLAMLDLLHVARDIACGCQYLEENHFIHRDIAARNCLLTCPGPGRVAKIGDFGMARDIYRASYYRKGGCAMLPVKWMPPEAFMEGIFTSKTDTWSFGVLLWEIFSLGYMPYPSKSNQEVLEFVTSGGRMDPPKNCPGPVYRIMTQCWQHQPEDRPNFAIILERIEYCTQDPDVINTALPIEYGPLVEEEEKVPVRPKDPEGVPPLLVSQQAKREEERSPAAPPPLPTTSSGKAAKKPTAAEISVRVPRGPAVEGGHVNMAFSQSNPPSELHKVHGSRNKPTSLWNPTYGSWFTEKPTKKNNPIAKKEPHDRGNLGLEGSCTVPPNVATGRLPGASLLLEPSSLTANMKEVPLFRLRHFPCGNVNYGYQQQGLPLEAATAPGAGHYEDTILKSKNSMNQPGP

Compound: COc1cc2c(cc1Nc1ncc(Cl)c(Nc3ccccc3S(=O)(=O)C(C)C)n1)CCN(CCN1CCOCC1)CC2 [Example 1534, 5-Chloro-N(2)-[8-methoxy-3-(2-morpholin-4-yl-ethyl)-2,3,4,5-tetrahydro-1H-3-benzazepin-7-yl]-N(4)-[2-(propane-2-sulfonyl)-phenyl]-pyrimidine-2,4-diamine]
IC50 [1, 3]: < 100 nM
IC50 [2, 4]: > 10000 nM

Compound: CNC(=O)c1ccccc1Nc1nc(Nc2c(OC)ccc3c2CCC(NCC(F)F)CC3)ncc1Cl (centres unmarked) [Example 1078, 2-{5-Chloro-2-[7-(2,2-difluoro-ethylamino)-2-methoxy-6,7,8,9-tetrahydro-5H-benzocyclohepten-1-ylamino]-pyrimidin-4-ylamino}-N-methyl-benzamide]
IC50 [1, 5]: 100 to 1000 nM
IC50 [2, 6]: > 10000 nM

Compound: CCN1CCNC(=O)c2ccc(Nc3ncc(Cl)c(Nc4ccccc4-c4nccn4C)n3)cc21 [Example 1453, 8-{5-Chloro-4-[2-(1-methyl-1H-imidazol-2-yl)-phenylamino]-pyrimidin-2-ylamino}-1-ethyl-1,2,3,4-tetrahydro-benzo[e][1,4]diazepin-5-one]
IC50 [1, 3]: < 100 nM
IC50 [2, 4]: 100 to 1000 nM

Compound: CNC(=O)C1(Nc2nc(Nc3cc4c(cc3OC)CCN(CCOC)CC4)ncc2Cl)CC1 [Example 1196, 1-{5-Chloro-2-[8-methoxy-3-(2-methoxy-ethyl)-2,3,4,5-tetrahydro-1H-benzo[d]azepin-7-ylamino]-pyrimidin-4-ylamino}-cyclopropanecarboxylic acid methylamide]
IC50 [1, 5]: 1000 to 10000 nM
IC50 [2, 6]: > 10000 nM

Compound: CNC(=O)[C@H]1[C@@H](Nc2nc(Nc3ccc4c(c3)CCN(CCOC)CC4)ncc2Cl)[C@@H]2C=C[C@H]1C2 (relative stereo) [Example 615, (2-exo-3-exo)-3-{5-Chloro-2-[3-(2-methoxy-ethyl)-2,3,4,5-tetrahydro-1H-benzo[d]azepin-7-ylamino]-pyrimidin-4-ylamino}-bicyclo[2.2.1]hept-5-ene-2-carboxylic acid methylamide]
IC50 [1, 9]: < 100 nM
IC50 [2, 10]: 100 to 1000 nM

Compound: CNS(=O)(=O)c1ccccc1Nc1nc(Nc2ccc3c(c2)C2CCC3CN(C(=O)C(F)(F)F)C2)ncc1Cl (centres unmarked) [Example 284, 2-{5-Chloro-2-[10-(2,2,2-trifluoro-acetyl)-10-aza-tricyclo[6.3.2.0*2,7*]trideca-2,4,6-trien-4-ylamino]-pyrimidin-4-ylamino}-N-methyl-benzenesulfonamide]
IC50 [1, 7]: < 100 nM
IC50 [2, 8]: 100 to 1000 nM

Compound: CN1CCN(C2CCN(C3CCc4ccc(Nc5ncc(Cl)c(N[C@H]6[C@@H](C(N)=O)[C@@H]7C=C[C@H]6C7)n5)cc4CC3)CC2)CC1 (stereo partly drawn) [Example 887, (1S,2S,3R,4R)-3-(5-Chloro-2-{7-[4-(4-methyl-piperazin-1-yl)-piperidin-1-yl]-6,7,8,9-tetrahydro-5H-benzocyclohepten-2-ylamino}-pyrimidin-4-ylamino)-bicyclo[2.2.1]hept-5-ene-2-carboxylic acid amide]
IC50 [1, 9]: < 100 nM
IC50 [2, 10]: 100 to 1000 nM

Compound: COc1cc2c(cc1Nc1ncc(Cl)c(Nc3ccc(N4CCN(C)CC4)cc3OC)n1)CCN(CC(C)(F)F)CC2 [Example 781, 5-Chloro-N*2*-[3-(2,2-difluoro-propyl)-8-methoxy-2,3,4,5-tetrahydro-1H-benzo[d]azepin-7-yl]-N*4*-[2-methoxy-4-(4-methyl-piperazin-1-yl)-phenyl]-pyrimidine-2,4-diamine]
IC50 [1, 9]: < 100 nM
IC50 [2, 10]: > 10000 nM

Compound: COc1cc2c(cc1Nc1ncc(Cl)c(Nc3ccc(N(C)C)cc3-n3cccn3)n1)CCN(CC(=O)N(C)C)CC2 [Example 631, 2-{7-[5-Chloro-4-(4-dimethylamino-2-pyrazol-1-yl-phenylamino)-pyrimidin-2-ylamino]-8-methoxy-1,2,4,5-tetrahydro-benzo[d]azepin-3-yl}-N,N-dimethyl-acetamide]
IC50 [1, 9]: < 100 nM
IC50 [2, 10]: > 10000 nM

Compound: C#CCOc1cccc(F)c1Nc1nc(Nc2ccc3c(c2)CCOC(=O)N3C)ncc1Cl [Example 1779, 2-[5-Chloro-4-(2-fluoro-6-prop-2-ynyloxy-phenylamino)-pyrimidin-2-ylamino]-5-methyl-8,9-dihydro-5H-7-oxa-5-aza-benzocyclohepten-6-one]
IC50 [1, 3]: 100 to 1000 nM
IC50 [2, 4]: 100 to 1000 nM

Compound: CNC(=O)c1ccccc1Nc1nc(Nc2ccc3c(c2)C2CCC3CN(CC#N)C2)ncc1Cl (centres unmarked) [Example 281, 2-[5-Chloro-2-(10-cyanomethyl-10-aza-tricyclo[6.3.2.0*2,7*]trideca-2,4,6-trien-4-ylamino)-pyrimidin-4-ylamino]-N-methyl-benzamide]
IC50 [1, 7]: < 100 nM
IC50 [2, 8]: < 100 nM

Other lines, results leading:

IC50 [1, 3]: 1000 to 10000 nM
IC50 [2, 4]: < 100 nM
Compound: CNC(=O)c1cc(C)cc(C)c1Nc1nc(Nc2ccc3c(c2)CCOC(=O)N3C)ncc1Cl [Example 1750, 2-[5-Chloro-2-(5-methyl-6-oxo-5,6,8,9-tetrahydro-7-oxa-5-aza-benzocyclohepten-2-ylamino)-pyrimidin-4-ylamino]-3,5,N-trimethyl-benzamide]

IC50 [1, 7]: < 100 nM
IC50 [2, 8]: 100 to 1000 nM
Compound: CS(=O)(=O)N[C@@H]1CCCC[C@H]1Nc1nc(Nc2ccc3c(c2)CCC(=O)CC3)ncc1Cl [Example 174, N-{(1R,2R)-2-[5-Chloro-2-(7-oxo-6,7,8,9-tetrahydro-5H-benzocyclohepten-2-ylamino)-pyrimidin-4-ylamino]-cyclohexyl}-methanesulfonamide]

IC50 [1, 7]: < 100 nM
IC50 [2, 8]: 100 to 1000 nM
Compound: CCN(CC)CCN1CCNC(=O)c2ccc(Nc3ncc(Cl)c(Nc4ccccc4C(=O)NC)n3)cc21 [Example 415, 2-{5-Chloro-2-[1-(2-diethylamino-ethyl)-5-oxo-2,3,4,5-tetrahydro-1H-benzo[e][1,4]diazepin-8-ylamino]-pyrimidin-4-ylamino}-N-methylbenzamide]

IC50 [1, 5]: < 100 nM
IC50 [2, 6]: 100 to 1000 nM
Compound: NC(=O)[C@@H]1[C@H](Nc2nc(Nc3ccc4c(c3)CCC(O)CC4)ncc2Cl)[C@H]2C=C[C@@H]1C2 (stereo partly drawn) [Example 1017, (1S,2S,3R,4R)-3-[5-Chloro-2-(7-hydroxy-6,7,8,9-tetrahydro-5H-benzocyclohepten-2-ylamino)-pyrimidin-4-ylamino]-bicyclo[2.2.1]hept-5-ene-2-carboxylic acid amide]

IC50 [1, 7]: < 100 nM
IC50 [2, 8]: 1000 to 10000 nM
Compound: CNC(=O)c1ccccc1Nc1nc(Nc2cc3c(cc2OC)CCN(CC(=O)N(C)C)CC3)ncc1Br [Example 376, 2-[5-Bromo-2-(3-dimethylcarbamoylmethyl-8-methoxy-2,3,4,5-tetrahydro-1H-benzo[d]azepin-7-ylamino)-pyrimidin-4-ylamino]-N-methyl-benzamide]

IC50 [1, 9]: < 100 nM
IC50 [2, 10]: > 10000 nM
Compound: COc1c(Nc2ncc(Cl)c(Nc3ccccc3-n3cccn3)n2)ccc2c1CCC(NCC(F)F)CC2 (centres unmarked) [Example 689, 5-Chloro-N*2*-[7-(2,2-difluoro-ethylamino)-1-methoxy-6,7,8,9-tetrahydro-5H-benzocyclohepten-2-yl]-N*4*-(2-pyrazol-1-yl-phenyl)-pyrimidine-2,4-diamine]

IC50 [1, 7]: < 100 nM
IC50 [2, 8]: < 100 nM
Compound: CNC(=O)c1ccccc1Nc1nc(Nc2ccc3c(c2)CNCCN3C)ncc1Cl [Example 420, 2-[5-Chloro-2-(1-methyl-2,3,4,5-tetrahydro-1H-benzo[e][1,4]diazepin-7-ylamino)-pyrimidin-4-ylamino]-N-methylbenzamide]

IC50 [1, 9]: < 100 nM
IC50 [2, 10]: > 10000 nM
Compound: COc1ccc(Nc2nc(Nc3cc4c(cc3OC)CN(CC3CC3)CC(=O)N4C)ncc2Cl)c(-n2cccn2)c1 [Example 748, 8-[5-Chloro-4-(4-methoxy-2-pyrazol-1-yl-phenylamino)-pyrimidin-2-ylamino]-cyclopropylmethyl-7-methoxy-1-methyl-1,3,4,5-tetrahydro-benzo[e][1,4]diazepin-2-one]

IC50 [1, 5]: < 100 nM
IC50 [2, 6]: > 10000 nM
Compound: CNC(=O)C1(Nc2nc(Nc3cc4c(cc3OC)CCN(CC(=O)N(C)C)CC4)ncc2Cl)CC1 [Example 1198, 1-[5-Chloro-2-(3-dimethylcarbamoylmethyl-8-methoxy-2,3,4,5-tetrahydro-1H-benzo[d]azepin-7-ylamino)-pyrimidin-4-ylamino]-cyclopropanecarboxylic acid methylamide]

IC50 [1, 9]: < 100 nM
IC50 [2, 10]: 1000 to 10000 nM
Compound: CNC(=O)c1cc(OC)ccc1Nc1nc(Nc2cc3c(cc2OC)CCN(CCOC)CC3)ncc1Cl [Example 621, 2-{5-Chloro-2-[8-methoxy-3-(2-methoxy-ethyl)-2,3,4,5-tetrahydro-1H-benzo[d]azepin-7-ylamino]-pyrimidin-4-ylamino}-5-methoxy-N-methyl-benzamide]

IC50 [1, 3]: 1000 to 10000 nM
IC50 [2, 4]: > 10000 nM
Compound: 8-{5-Chloro-4-[2-(2-morpholin-4-yl-ethoxy)-phenylamino]-pyrimidin-2-ylamino}-1,3,4,5-tetrahydro-benzo[b]azepin-2-one [Example 1464]
